Data on 5 compounds can be found in article PMC12136037, “Type II kinase inhibitors that target Parkinson’s disease–associated LRRK2” (Science Advances, 2025).

The target in test [1] is T1, LRRK2^RCKW (Homo sapiens, UniProt Q5S007).
T1 construct: LRRK2 R1327 to E2527; His6-Z-tag (TEV cleavable) (N, cleaved yes); host or cells: Sf9 insect cells (baculovirus)
T1 sequence (Q5S007 1327-2527): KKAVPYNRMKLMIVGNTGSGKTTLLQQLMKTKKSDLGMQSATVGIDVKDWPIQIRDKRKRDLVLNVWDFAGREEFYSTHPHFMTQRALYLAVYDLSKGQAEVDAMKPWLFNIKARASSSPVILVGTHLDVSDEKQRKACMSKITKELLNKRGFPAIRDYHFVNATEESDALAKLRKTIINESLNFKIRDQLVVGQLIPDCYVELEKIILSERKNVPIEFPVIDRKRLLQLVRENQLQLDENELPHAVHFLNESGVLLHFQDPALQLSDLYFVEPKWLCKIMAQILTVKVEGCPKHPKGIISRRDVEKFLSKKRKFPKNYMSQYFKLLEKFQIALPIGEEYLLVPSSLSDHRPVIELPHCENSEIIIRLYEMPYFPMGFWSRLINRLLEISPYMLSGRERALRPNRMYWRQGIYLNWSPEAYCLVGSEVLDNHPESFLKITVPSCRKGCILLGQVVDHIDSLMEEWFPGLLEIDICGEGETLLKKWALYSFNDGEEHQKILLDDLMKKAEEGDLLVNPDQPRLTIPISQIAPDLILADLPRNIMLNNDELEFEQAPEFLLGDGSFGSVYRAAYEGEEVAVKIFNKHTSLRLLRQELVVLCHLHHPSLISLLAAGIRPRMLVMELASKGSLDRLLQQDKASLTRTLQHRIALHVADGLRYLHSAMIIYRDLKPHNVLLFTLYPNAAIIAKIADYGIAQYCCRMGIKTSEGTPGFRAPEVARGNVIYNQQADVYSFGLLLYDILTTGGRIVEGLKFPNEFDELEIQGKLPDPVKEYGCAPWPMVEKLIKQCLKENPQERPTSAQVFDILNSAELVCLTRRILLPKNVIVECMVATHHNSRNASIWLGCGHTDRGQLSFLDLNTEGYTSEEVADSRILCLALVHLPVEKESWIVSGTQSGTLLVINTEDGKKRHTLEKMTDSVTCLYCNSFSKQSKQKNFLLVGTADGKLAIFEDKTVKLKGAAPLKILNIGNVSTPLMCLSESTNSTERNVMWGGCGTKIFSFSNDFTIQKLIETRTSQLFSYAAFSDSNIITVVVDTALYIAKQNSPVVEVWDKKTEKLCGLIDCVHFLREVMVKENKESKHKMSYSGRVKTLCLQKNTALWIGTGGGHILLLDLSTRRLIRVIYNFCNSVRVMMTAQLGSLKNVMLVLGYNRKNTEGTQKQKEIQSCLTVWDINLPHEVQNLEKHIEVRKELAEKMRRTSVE
Briefly: Biochemical LRRK2 activity assay (PhosphoSense, AssayQuant SOX peptide AQT0615). The note with it: for IC50: LRRK2^RCKW kinase activity, in vitro; for normalized response (LRRK2 activity): normalized to 0% (no kinase) and 100% (no inhibitor) control, two singlicate columns per compound. The gist of the method: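 Controls lacked protein and compound (0%) or compound only (100%). IC50 derived by nonlinear regression of normalized response versus log[inhibitor].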

Test [2] deals with T2, ~100 representative kinases (Homo sapiens, UniProt O94804).
T2 construct: Recombinant protein kinase domains with a concentration of 2 μM
The experiment in a line: DSF 100 kinase selectivity screen.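 Further: compound tested at 20 µM.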 The test is classed as binding. The following applies: Protein STK10; DSF; average of three replicates. Here is the method:
(§1) Recombinant protein kinase domains with a concentration of 2 μM were mixed with a 20 μM compound solution in dimethyl sulfoxide (DMSO), 20 mM Hepes (pH 7.5), and 500 mM NaCl. SYPRO Orange (5000×, Invitrogen) was added as a fluorescence probe (1μl/ml). Subsequently, temperature-dependent protein unfolding profiles were measured using the QuantStudio 5 realtime PCR machine (Thermo Fisher Scientific, Waltham, MA, USA). […] The temperature was raised with a step rate of 3°C/min. […] Differences in melting temperature are given as ΔTm values in degrees Celsius. […]

Test [3] concerns the target T3, ~100 representative kinases (Homo sapiens, UniProt Q9Y6E0).
T3 construct: Recombinant protein kinase domains with a concentration of 2 μM
Briefly: DSF 100 kinase selectivity screen.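 Further: compound tested at 20 µM.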 Format: binding. The following applies: protein MST3; average of three replicates. As for the experimental part:
as §1

For test [4], the target named is T4, ~100 representative kinases (Homo sapiens, UniProt Q13627).
T4 construct: Recombinant protein kinase domains with a concentration of 2 μM
The experiment in a line: DSF 100 kinase selectivity screen.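 Further: compound tested at 20 µM.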 The test is classed as binding. The following applies: Protein DYRK1A; average of three replicates. Here is the method:
as §1

Test [5] addresses T5, ~100 representative kinases (Homo sapiens, UniProt O15264).
T5 construct: Recombinant protein kinase domains with a concentration of 2 μM
T5 sequence (O15264 1-365): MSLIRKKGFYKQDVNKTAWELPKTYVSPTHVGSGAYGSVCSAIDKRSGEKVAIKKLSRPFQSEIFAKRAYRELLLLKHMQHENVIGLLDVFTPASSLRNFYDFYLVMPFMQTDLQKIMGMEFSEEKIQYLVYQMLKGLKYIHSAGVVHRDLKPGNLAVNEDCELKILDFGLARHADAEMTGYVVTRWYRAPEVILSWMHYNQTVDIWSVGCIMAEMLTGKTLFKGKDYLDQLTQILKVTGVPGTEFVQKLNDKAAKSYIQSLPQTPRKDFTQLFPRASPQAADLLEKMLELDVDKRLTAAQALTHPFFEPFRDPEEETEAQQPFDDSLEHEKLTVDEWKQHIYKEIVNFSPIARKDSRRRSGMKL
Briefly: DSF 100 kinase selectivity screen.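 Further: compound tested at 20 µM.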 The test is classed as binding. The note with it: protein MAPK13; average of three replicates. Here is the method: as §1

Values joined by “and” are separate entries in the source; they are usually repeats but may differ in a detail not shown here. Identical values can stand only once.

For orientation: IC50 means the concentration at which inhibition is half-maximal.

T3 sequence (Q9Y6E0 whole entry, the tested form may be a part): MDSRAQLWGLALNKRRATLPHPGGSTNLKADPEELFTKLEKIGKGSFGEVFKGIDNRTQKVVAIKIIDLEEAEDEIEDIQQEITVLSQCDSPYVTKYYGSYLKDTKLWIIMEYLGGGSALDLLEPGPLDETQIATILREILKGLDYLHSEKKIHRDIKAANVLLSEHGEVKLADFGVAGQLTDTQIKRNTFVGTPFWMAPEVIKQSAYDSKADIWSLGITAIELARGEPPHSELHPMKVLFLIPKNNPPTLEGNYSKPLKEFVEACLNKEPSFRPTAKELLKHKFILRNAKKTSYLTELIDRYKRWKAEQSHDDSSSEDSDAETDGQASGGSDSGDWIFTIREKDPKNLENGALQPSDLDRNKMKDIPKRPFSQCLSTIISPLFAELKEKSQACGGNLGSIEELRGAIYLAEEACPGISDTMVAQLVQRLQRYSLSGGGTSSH
T2 sequence (O94804 whole entry, the tested form may be a part): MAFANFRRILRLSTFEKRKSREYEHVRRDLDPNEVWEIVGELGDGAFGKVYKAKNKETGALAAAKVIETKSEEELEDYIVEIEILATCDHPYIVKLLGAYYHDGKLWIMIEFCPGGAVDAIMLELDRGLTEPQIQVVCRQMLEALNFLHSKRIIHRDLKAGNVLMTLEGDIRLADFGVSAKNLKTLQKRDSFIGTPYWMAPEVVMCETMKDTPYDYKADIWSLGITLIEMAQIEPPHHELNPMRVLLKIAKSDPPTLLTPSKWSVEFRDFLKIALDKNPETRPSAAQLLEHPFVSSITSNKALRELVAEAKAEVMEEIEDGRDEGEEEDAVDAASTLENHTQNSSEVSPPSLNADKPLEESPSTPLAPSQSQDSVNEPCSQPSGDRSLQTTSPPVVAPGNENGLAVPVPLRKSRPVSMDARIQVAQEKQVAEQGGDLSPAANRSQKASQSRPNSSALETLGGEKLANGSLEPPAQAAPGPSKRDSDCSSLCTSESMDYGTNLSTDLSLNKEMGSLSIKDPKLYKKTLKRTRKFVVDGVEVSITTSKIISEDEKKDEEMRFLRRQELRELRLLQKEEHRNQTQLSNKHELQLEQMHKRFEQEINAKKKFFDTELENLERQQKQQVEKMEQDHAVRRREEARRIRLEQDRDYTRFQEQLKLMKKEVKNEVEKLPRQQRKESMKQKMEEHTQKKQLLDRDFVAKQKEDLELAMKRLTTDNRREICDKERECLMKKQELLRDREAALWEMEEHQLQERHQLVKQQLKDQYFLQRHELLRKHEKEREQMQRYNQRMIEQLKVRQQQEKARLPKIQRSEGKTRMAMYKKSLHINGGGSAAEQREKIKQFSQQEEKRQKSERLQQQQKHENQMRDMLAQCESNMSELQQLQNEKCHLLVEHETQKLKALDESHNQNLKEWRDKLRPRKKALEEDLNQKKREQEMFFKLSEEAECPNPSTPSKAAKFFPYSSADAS

In test [1], `Cc1ccc(NC(=O)C2(C(=O)Nc3cccc(-c4c[nH]c5ncnc(N6CCOCC6)c45)c3)CC2)cc1` [Compound 14] gave an IC50 of 156 ± 33 nM. In addition, the “normalized response (LRRK2 activity)” value was -6.986% and -9.956% in test [1] (log[inhibitor(mol)] -5.12494); 21.8981% and 20.2655% in test [1] (log[inhibitor(mol)] -5.60206); 13.87% and 15.03% in test [1] (log[inhibitor(mol)] -6.30103); 58.2022% and 57.0299% in test [1] (log[inhibitor(mol)] -6.90309); 81.6541% and 110.82% in test [1] (log[inhibitor(mol)] -7.30103); 85.6497% and 54.8081% in test [1] (log[inhibitor(mol)] -7.60206). Further, the “normalized response (LRRK2 activity)” value was 91.8548% and 92.1679% in test [1] (log[inhibitor(mol)] -8.09691); 98.0477% and 97.5874% in test [1] (log[inhibitor(mol)] -8.61979); 93.5857% and 99.2323% in test [1] (log[inhibitor(mol)] -9.09691); 96.7834% and 110.495% in test [1] (log[inhibitor(mol)] -9.39794). For the same compound, the dTm was 11.44 K in test [2], 4.56 K in test [3], 3.30 K in test [4] and 9.07 K in test [5].
Turning to `CCc1ccc(NC(=O)C2(C(=O)Nc3cccc(-c4c[nH]c5ncnc(N6CCOCC6)c45)c3)CC2)cc1` [Compound 15], the IC50 in test [1] stood at 960 ± 33 nM. Also, the “normalized response (LRRK2 activity)” value in test [1] (log[inhibitor(mol)] -5.12494) was -0.2711% and -2.401%; in test [1] (log[inhibitor(mol)] -5.60206), 22.7451% and 24.0892%; in test [1] (log[inhibitor(mol)] -6.30103), 67.6419% and 69.4402%; in test [1] (log[inhibitor(mol)] -6.90309), 95.7584% and 98.1889%; in test [1] (log[inhibitor(mol)] -7.30103), 103.897% and 98.4037%; in test [1] (log[inhibitor(mol)] -7.60206), 108.801% and 106.855%. Further, the “normalized response (LRRK2 activity)” value in test [1] (log[inhibitor(mol)] -8.09691) was 103.13% and 100.705%; in test [1] (log[inhibitor(mol)] -8.61979) it was 105.315% and 96.9982%; in test [1] (log[inhibitor(mol)] -9.09691), 106.518% and 101.982%; in test [1] (log[inhibitor(mol)] -9.39794), 107.174% and 104.775%. The dTm is 12.89 K in test [2], 2.23 K in test [3], 3.55 K in test [4] and 8.81 K in test [5].
In turn, `COc1ccc(NC(=O)C2(C(=O)Nc3cccc(-c4c[nH]c5ncnc(N6CCOCC6)c45)c3)CC2)cc1` [Compound 16] displayed an IC50 in test [1] of 1100 ± 217 nM. Also, the “normalized response (LRRK2 activity)” value is -5.114% and -9.8151% in test [1] (log[inhibitor(mol)] -4.82391); 0.6005% and -2.272% in test [1] (log[inhibitor(mol)] -5.12494); 29.0484% and 32.3505% in test [1] (log[inhibitor(mol)] -5.60206); 66.3591% and 78.0881% in test [1] (log[inhibitor(mol)] -6.30103); 96.3721% and 94.5984% in test [1] (log[inhibitor(mol)] -6.90309); 96.366% and 105.259% in test [1] (log[inhibitor(mol)] -7.30103). Besides, the “normalized response (LRRK2 activity)” value in test [1] (log[inhibitor(mol)] -7.60206) was 97.2621% and 95.7829%; in test [1] (log[inhibitor(mol)] -8.09691), 97.8759% and 91.3822%; in test [1] (log[inhibitor(mol)] -8.61979) it was 98.0661% and 96.7588%; in test [1] (log[inhibitor(mol)] -9.09691), 100.497% and 98.6001%; in test [1] (log[inhibitor(mol)] -9.39794), 96.0714% and 99.3612%. Besides, the dTm turned out to be 7.29 K in test [2], 1.58 K in test [3], 0.49 K in test [4] and 5.41 K in test [5].
In turn, `O=C(Nc1cccc(-c2c[nH]c3ncnc(N4CCOCC4)c23)c1)C1(C(=O)Nc2ccc(F)c(F)c2)CC1` [Compound 17] registered an IC50 in test [1] of 253 ± 33 nM. Moreover, the “normalized response (LRRK2 activity)” value in test [1] (log[inhibitor(mol)] -4.82391) was -1.222% and -11.0979%; in test [1] (log[inhibitor(mol)] -5.12494) it was -9.447% and -10.6928%; in test [1] (log[inhibitor(mol)] -5.60206) it was 0.9319% and 1.085%; in test [1] (log[inhibitor(mol)] -6.30103), 26.1821% and 29.3798%; in test [1] (log[inhibitor(mol)] -6.90309) it was 67.0342% and 72.3494%; in test [1] (log[inhibitor(mol)] -7.30103) it was 85.8031% and 94.494%. Further, the “normalized response (LRRK2 activity)” value in test [1] (log[inhibitor(mol)] -7.60206) is 98.3853% and 103.983%; in test [1] (log[inhibitor(mol)] -8.09691) it was 103.068% and 102.123%; in test [1] (log[inhibitor(mol)] -8.61979) it was 111.403% and 110.329%; in test [1] (log[inhibitor(mol)] -9.09691) it was 113.398% and 109.795%; in test [1] (log[inhibitor(mol)] -9.39794), 105.315% and 104.756%. Moreover, the dTm is 13.86 K in test [2], 6.82 K in test [3], 4.77 K in test [4] and 9.50 K in test [5].
In the case of `O=C(Nc1cccc(-c2c[nH]c3ncnc(N4CCOCC4)c23)c1)C1(C(=O)Nc2ccc(F)c(Cl)c2)CC1` [Compound 18], in test [1], the IC50 was 152 ± 44 nM. In addition, the “normalized response (LRRK2 activity)” value in test [1] (log[inhibitor(mol)] -5.12494) is -12.1904% and -14.2894%; in test [1] (log[inhibitor(mol)] -5.60206) it was -3.604% and -4.745%; in test [1] (log[inhibitor(mol)] -6.90309), 53.6603% and 67.7094%; in test [1] (log[inhibitor(mol)] -7.30103) it was 89.4919% and 81.5068%; in test [1] (log[inhibitor(mol)] -8.09691), 92.5361% and 84.907%; in test [1] (log[inhibitor(mol)] -8.61979) it was 95.9241% and 92.0144%. For the same compound, the “normalized response (LRRK2 activity)” value in test [1] (log[inhibitor(mol)] -9.09691) was 91.7935% and 96.8386%; in test [1] (log[inhibitor(mol)] -9.39794), 94.1994% and 95.2858%. Also, the dTm in test [2] was 15.34 K; in test [3], 6.96 K; in test [4] it was 6.34 K; in test [5] it was 12.04 K.
